Source: ChEMBL document CHEMBL5120903, “Constituents of Croton megalocarpus with Potential Anti-HIV Activity” (J Nat Prod, 2022)
pIC50: −log10 of the molar value.

What was measured:
[1] = Cytotoxicity against human MT4 cells and measured after 5 days by MTT assay; format: toxicity, cell-based
[2] = Cytotoxicity against human FM55M1 cells assessed as reduction in cell viability measured upto 50 uM incubated for 72 hrs by cell titre 96 reagent based plate reader analysis; format: toxicity; details: fm55m1, 72 h
[3] = tested on: Human immunodeficiency virus 1; experiment: Anti-retroviral activity against HIV-1 IIIB infected in human MT4 cells assessed as inhibition of viral replication and measured after 5 days by MTT assay; format: functional, organism-based; details: Human immunodeficiency virus 1, IIIB, MT4, 120 h
[4] = target: Human immunodeficiency virus type 1 protease (Human immunodeficiency virus 1) (UniProt Q72874); experiment: Inhibition of HIV-1 protease at 10 ug/ml by fluorescence based plate reader assay relative to control; details: dose 10.0 µg/ml

SMILES	IC50 at 5 days [1]	Activity [2]	pIC50 [3]	inhibition [4]
C=C1CC[C@]2(O)OC(=O)C(C)=C2[C@@H]2[C@@H]1[C@@]13O[C@@]1(C[C@@H](C)[C@H]3O)[C@H]1O[C@@]21C	510 µM	Non-Toxic	8.26	75%
C=C1CC[C@@H]2OC(=O)C(C)=C2[C@@H]2[C@@H]1[C@@]13O[C@@]1([C@@H](Cl)[C@@H](C)[C@H]3OC(C)=O)[C@@H](O)[C@@]2(C)O	209 µM	Non-Toxic	7.55	63%
